Results as given in US9221756B2, “Pyrrole derivatives” (priority 2011, dated 2015).

Target: pneumolysin (Streptococcus pneumoniae serotype 2, UniProt Q04IN8)
Test: Inhibition of the haemolytic activity of pneumolysin (sheep erythrocytes)
Type: cell-based
Details: IC50, inhibition of pneumolysin-induced haemolysis of sheep erythrocytes; class symbols of Table 1

Sequence of pneumolysin (Q04IN8 whole entry): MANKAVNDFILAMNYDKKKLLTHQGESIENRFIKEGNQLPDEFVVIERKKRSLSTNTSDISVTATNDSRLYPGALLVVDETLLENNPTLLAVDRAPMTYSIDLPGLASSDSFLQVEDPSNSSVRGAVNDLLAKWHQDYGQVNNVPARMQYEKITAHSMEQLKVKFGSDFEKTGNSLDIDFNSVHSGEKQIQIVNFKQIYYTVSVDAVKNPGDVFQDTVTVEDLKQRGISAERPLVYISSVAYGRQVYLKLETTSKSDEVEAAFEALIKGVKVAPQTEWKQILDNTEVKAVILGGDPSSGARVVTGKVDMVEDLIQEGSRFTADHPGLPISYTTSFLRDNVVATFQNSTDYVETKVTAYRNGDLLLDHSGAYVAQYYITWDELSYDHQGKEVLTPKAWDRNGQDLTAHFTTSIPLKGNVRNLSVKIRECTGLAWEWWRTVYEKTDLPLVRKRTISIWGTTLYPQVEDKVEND

Row | Structure (SMILES) | IC50
1 | CCNC(=O)c1c(O)c(O)c(C(=O)NCC)n1-c1ccc(OCC)cc1 [UL1-078, 1-(4-ethoxyphenyl)-N2,N5-diethyl-3,4-dihydroxy-1H-pyrrole-2,5-dicarboxamide] | < 10 µM
2 | CCOC(=O)c1c(OCc2ccccc2)c(OCc2ccccc2)c(C(N)=O)n1-c1ccc(OC)cc1 [UL1-079, ethyl 3,4-bis(benzyloxy)-5-carbamoyl-1-(4-methoxyphenyl)-1H-pyrrole-2-carboxylate] | < 10 µM
3 | CCOC(=O)c1c(O)c(O)c(C(N)=O)n1-c1ccc(OC)cc1 [UL1-080, ethyl 5-carbamoyl-3,4-dihydroxy-1-(4-methoxyphenyl)-1H-pyrrole-2-carboxylate] | < 10 µM
4 | CCOC(=O)c1c(OCc2ccccc2)c(OCc2ccccc2)c(-c2ccccc2OC)n1-c1ccc(OC)cc1 [UL1-081, ethyl 3,4-bis(benzyloxy)-5-(2-methoxyphenyl)-1-(4-methoxyphenyl)-1H-pyrrole-2-carboxylate] | 20 to 60 µM
5 | CCOC(=O)c1c(OCc2ccccc2)c(OCc2ccccc2)c(-c2ccccn2)n1-c1ccc(OC)cc1 [UL1-082, ethyl 3,4-bis(benzyloxy)-1-(4-methoxyphenyl)-5-(pyridin-2-yl)-1H-pyrrole-2-carboxylate] | 10 to 20 µM
6 | CCOC(=O)c1c(O)c(O)c(-c2ccccn2)n1-c1ccc(OC)cc1 [UL1-083, ethyl 3,4-dihydroxy-1-(4-methoxyphenyl)-5-(pyridin-2-yl)-1H-pyrrole-2-carboxylate] | < 10 µM
7 | CCOC(=O)c1c(OCc2ccccc2)c(OCc2ccccc2)c(-c2ccncc2)n1-c1ccc(OC)cc1 [UL1-084, ethyl 3,4-bis(benzyloxy)-1-(4-methoxyphenyl)-5-(pyridin-4-yl)-1H-pyrrole-2-carboxylate] | < 10 µM
8 | CCOC(=O)c1c(OCc2ccccc2)c(OCc2ccccc2)c(-c2cccnc2)n1-c1ccc(OC)cc1 [UL1-085, ethyl 3,4-bis(benzyloxy)-1-(4-methoxyphenyl)-5-(pyridin-3-yl)-1H-pyrrole-2-carboxylate] | < 10 µM
9 | CCOC(=O)c1c(O)c(O)c(-c2nc(CC)cs2)n1-c1ccc(OC)cc1 [UL1-086, ethyl 5-(4-ethylthiazol-2-yl)-3,4-dihydroxy-1-(4-methoxyphenyl)-1H-pyrrole-2-carboxylate] | < 10 µM
10 | CCOC(=O)c1c(OCc2ccccc2)c(OCc2ccccc2)c(-c2nnc(C)o2)n1-c1ccc(OC)cc1 [UL1-087, ethyl 3,4-bis(benzyloxy)-1-(4-methoxyphenyl)-5-(5-methyl-1,3,4-oxadiazol-2-yl)-1H-pyrrole-2-carboxylate] | < 10 µM
11 | CCOC(=O)c1c(OCc2ccccc2)c(OCc2ccccc2)c(-c2nnc(CC)o2)n1-c1ccc(OC)cc1 [UL1-088, ethyl 3,4-bis(benzyloxy)-5-(5-ethyl-1,3,4-oxadiazol-2-yl)-1-(4-methoxyphenyl)-1H-pyrrole-2-carboxylate] | 10 to 20 µM
12 | CCOC(=O)c1c(O)c(O)c(-c2nn[nH]n2)n1-c1ccc(OC)cc1 [UL1-089, ethyl 3,4-dihydroxy-1-(4-methoxyphenyl)-5-(2H-tetrazol-5-yl)-1H-pyrrole-2-carboxylate] | < 10 µM
13 | CCOC(=O)c1c(OCc2ccccc2)c(OCc2ccccc2)c(-c2nn[nH]n2)n1-c1ccc(OC)cc1 [UL1-090, ethyl 3,4-bis(benzyloxy)-1-(4-methoxyphenyl)-5-(2H-tetrazol-5-yl)-1H-pyrrole-2-carboxylate] | < 10 µM
14 | COc1ccc(-n2c(C(C)=O)c(O)c(O)c2C(=O)N(C)C)cc1 [UL1-091, 5-acetyl-3,4-dihydroxy-1-(4-methoxyphenyl)-N,N-dimethyl-1H-pyrrole-2-carboxamide] | < 10 µM
15 | CCOC(=O)c1c(O)c(O)c(C(=O)N(C)C)n1-c1ccc(OCCOC)cc1 [UL1-093, ethyl 5-(dimethylcarbamoyl)-3,4-dihydroxy-1-(4-(2-methoxyethoxy)phenyl)-1H-pyrrole-2-carboxylate] | < 10 µM
16 | CCOC(=O)c1c(O)c(O)c(C(=O)N(C)C)n1-c1ccc(OCCOCCOCCOC)cc1 [UL1-095, ethyl 5-(dimethylcarbamoyl)-3,4-dihydroxy-1-(4-(2-(2-(2-methoxyethoxy)ethoxy)ethoxy)phenyl)-1H-pyrrole-2-carboxylate] | < 10 µM
17 | CCOC(=O)c1c(O)c(O)c(C(=O)N(C)C)n1-c1ccc(OCCOCCOCCOCCOC)cc1 [UL1-096, ethyl 1-(4-(2,5,8,11-tetraoxatridecan-13-yloxy)phenyl)-5-(dimethylcarbamoyl)-3,4-dihydroxy-1H-pyrrole-2-carboxylate] | < 10 µM

Row | Structure (SMILES) | IC50
18 | CCOC(=O)c1c(O)c(O)c(C(=O)NC)n1-c1ccc(OC)cc1 [UL1-099, ethyl 3,4-dihydroxy-1-(4-methoxyphenyl)-5-(methylcarbamoyl)-1H-pyrrole-2-carboxylate] | < 10 µM
19 | CCOC(=O)c1c(O)c(O)c(C(=O)N(C)C)n1-c1ccc(O)cc1 [UL1-100, ethyl 5-(dimethylcarbamoyl)-3,4-dihydroxy-1-(4-hydroxyphenyl)-1H-pyrrole-2-carboxylate] | < 10 µM
20 | CCOC(=O)c1c(O)c(O)c(C(=O)N(C)C)n1-c1ccc(OP(=O)(O)O)cc1 [UL1-101, ethyl 5-(dimethylcarbamoyl)-3,4-dihydroxy-1-(4-(phosphonooxy)phenyl)-1H-pyrrole-2-carboxylate] | < 10 µM
21 | CCOC(=O)c1c(O)c(O)c(C(=O)N(C)C)n1-c1ccc(OCCCN2CCOCC2)cc1 [UL1-102, ethyl 5-(dimethylcarbamoyl)-3,4-dihydroxy-1-(4-(3-morpholinopropoxy)phenyl)-1H-pyrrole-2-carboxylate] | < 10 µM
22 | CCOC(=O)c1c(O)c(O)c(C(=O)N(C)C)n1-c1ccc(OCCCN2CCN(C)CC2)cc1 [UL1-103, ethyl 5-(dimethylcarbamoyl)-3,4-dihydroxy-1-(4-(3-(4-methylpiperazin-1-yl)propoxy)phenyl)-1H-pyrrole-2-carboxylate] | < 10 µM
23 | CCOC(=O)c1c(OC(=O)CCOC)c(OC(=O)CCOC)c(C(=O)N(C)C)n1-c1ccc(OC)cc1 [UL1-104, 2-(dimethylcarbamoyl)-5-(ethoxycarbonyl)-1-(4-methoxyphenyl)-1H-pyrrole-3,4-diyl bis(3-methoxypropanoate)] | < 10 µM
24 | CCOC(=O)c1c(O)c(O)c(C(=O)N(C)C)n1-c1ccc(OCCCP(=O)(OCC)OCC)cc1 [UL1-106, ethyl 1-(4-(3-(diethoxyphosphoryl)propoxy)phenyl)-5-(dimethylcarbamoyl)-3,4-dihydroxy-1H-pyrrole-2-carboxylate] | < 10 µM
25 | CCOC(=O)c1c(O)c(O)c(C(=O)N(C)C)n1-c1ccc(OCCCP(=O)(O)O)cc1 [UL1-107, (3-(4-(2-(dimethylcarbamoyl)-5-(ethoxycarbonyl)-3,4-dihydroxy-1H-pyrrol-1-yl)phenoxy)propyl)phosphonic acid] | < 10 µM
26 | CCOC(=O)c1c(OC(=O)C(C)(C)COCCOC)c(OC(=O)C(C)(C)COCCOC)c(C(=O)N(C)C)n1-c1ccc(OC)cc1 [UL1-108, 2-(dimethylcarbamoyl)-5-(ethoxycarbonyl)-1-(4-methoxyphenyl)-1H-pyrrole-3,4-diyl bis(3-(2-methoxyethoxy)-2,2-dimethylpropanoate)] | 10 to 20 µM
27 | CCOC(=O)c1c(O)c(O)c(C(=O)N(C)C)n1-c1ccc(OCCCS(C)(=O)=O)cc1 [UL1-110, ethyl 5-(dimethylcarbamoyl)-3,4-dihydroxy-1-(4-(3-(methylsulfonyl)propoxy)phenyl)-1H-pyrrole-2-carboxylate] | < 10 µM
28 | COc1ccc(-n2c(C(=O)OCC(C)(C)C)c(O)c(O)c2C(=O)N(C)C)cc1 [UL1-112, neopentyl 5-(dimethylcarbamoyl)-3,4-dihydroxy-1-(4-methoxyphenyl)-1H-pyrrole-2-carboxylate] | < 10 µM
29 | COc1ccc(-n2c(C(=O)OC3C(C)CCCC3C)c(O)c(O)c2C(=O)N(C)C)cc1 (stereo not shown) [UL1-113, 2,6-dimethylcyclohexyl 5-(dimethylcarbamoyl)-3,4-dihydroxy-1-(4-methoxyphenyl)-1H-pyrrole-2-carboxylate] | < 10 µM
30 | COc1ccc(-n2c(C(=O)OC3CCCC3)c(O)c(O)c2C(=O)N(C)C)cc1 [UL1-116, cyclopentyl 5-(dimethylcarbamoyl)-3,4-dihydroxy-1-(4-methoxyphenyl)-1H-pyrrole-2-carboxylate] | < 10 µM
31 | CCOC(=O)c1c(OC(=O)C(C)(C)COCCOCCOCCOCCOCCOCCOCCOC)c(OC(=O)C(C)(C)COCCOCCOCCOCCOCCOCCOCCOC)c(C(=O)N(C)C)n1-c1ccc(OC)cc1 [UL1-119, 2-(dimethylcarbamoyl)-5-(ethoxycarbonyl)-1-(4-methoxyphenyl)-1H-pyrrole-3,4-diyl bis(25,25-dimethyl-2,5,8,11,14,17,20,23-octaoxahexacosan-26-oate)] | < 10 µM
32 | COCCOCCOCCOCCOCCOCCOCCOCC(C)(C)C(=O)Oc1c(OC(=O)C(C)(C)COCCOCCOCCOCCOCCOCCOCCOC)c(C(=O)N(C)C)n(-c2ccc(OC)cc2)c1C(=O)N(C)C [UL1-120, 2,5-bis(dimethylcarbamoyl)-1-(4-methoxyphenyl)-1H-pyrrole-3,4-diyl bis(25,25-dimethyl-2,5,8,11,14,17,20,23-octaoxahexacosan-26-oate)] | 10 to 20 µM
33 | COc1ccc(-n2c(C(=O)N(C)C)c(OC(=O)C(C)(C)COCCOCCOP(=O)(O)O)c(OC(=O)C(C)(C)COCCOCCOP(=O)(O)O)c2C(=O)N(C)C)cc1 [UL1-121, 2,5-bis(dimethylcarbamoyl)-1-(4-methoxyphenyl)-1H-pyrrole-3,4-diyl bis(2,2-dimethyl-3-(2-(2-(phosphonooxy)ethoxy)ethoxy)propanoate)] | 10 to 20 µM

Same assay, conditions: IC50, inhibition of pneumolysin-induced haemolysis of sheep erythrocytes; specific values

Row | Structure (SMILES) | IC50
34 | CCOC(=O)c1c(O)c(O)c(-c2nn[nH]n2)n1-c1ccc(OC)cc1 [UL1-089, ethyl 3,4-dihydroxy-1-(4-methoxyphenyl)-5-(2H-tetrazol-5-yl)-1H-pyrrole-2-carboxylate] | 0.4 µM
35 | CCOC(=O)c1c(O)c(O)c(C(=O)N(C)C)n1-c1ccc(OCCCP(=O)(OCC)OCC)cc1 [UL1-106, ethyl 1-(4-(3-(diethoxyphosphoryl)propoxy)phenyl)-5-(dimethylcarbamoyl)-3,4-dihydroxy-1H-pyrrole-2-carboxylate] | 0.17 µM
36 | COc1ccc(-n2c(C(=O)OC3CCCC3)c(O)c(O)c2C(=O)N(C)C)cc1 [UL1-116, cyclopentyl 5-(dimethylcarbamoyl)-3,4-dihydroxy-1-(4-methoxyphenyl)-1H-pyrrole-2-carboxylate] | 0.18 µM

Same assay, conditions: inhibition of pneumolysin-induced haemolysis of sheep erythrocytes; class symbols of Table 1; read-out: IC50

Row | Structure (SMILES) | IC50
37 | CCOC(=O)c1c(O)c(OP(=O)(OCC)OCC)c(C(=O)N(C)C)n1-c1ccc(OC)cc1 [UL1-097, ethyl 4-((diethoxyphosphoryl)oxy)-5-(dimethylcarbamoyl)-3-hydroxy-1-(4-methoxyphenyl)-1H-pyrrole-2-carboxylate] | > 60 µM
